Here are results for 9 compounds from ChEMBL document CHEMBL1133848, “Novel synthesis and RNA-binding properties of aminoglycoside dimers conjugated via a naphthalene diimide-based intercalator” (Bioorg Med Chem Lett, 2001).

Each structure is given as a SMILES string. pKd: −log10 of the molar value.

The nature of this experiment: Dissociation constant with dimeric 16S rRNA RNA construct B.
With `NC[C@H]1O[C@H](O[C@H]2[C@H](O)[C@@H](O[C@H]3O[C@H](CSCCOCCSCC(O)CN4C(=O)c5ccc6c7c(ccc(c57)C4=O)C(=O)N(CC(O)CSCCOCCSC[C@H]4O[C@H](O[C@@H]5[C@@H](O)[C@H](O[C@H]7O[C@H](CN)[C@@H](O)C[C@H]7N)[C@@H](N)C[C@H]5N)[C@H](O)[C@@H](N)[C@@H]4O)C6=O)[C@@H](O)[C@H](N)[C@H]3O)[C@H](N)C[C@@H]2N)[C@H](N)C[C@@H]1O` (some centres undefined), the pKd – broadly, the Kd on a negative log10 scale, so that one unit is a factor of ten – is 5.95.

The compound `CN(C)C1=CC2Oc3cc(N(C)C)ccc3C(c3ccc(C(=O)NC[C@@H]4O[C@H](O[C@H]5[C@@H](O)[C@H](O[C@@H]6[C@H](O)[C@H](N)C[C@@H](N)[C@H]6O[C@H]6O[C@@H](CO)[C@@H](O)[C@H](O)[C@@H]6N)O[C@@H]5CO)[C@H](N)[C@H](O)[C@@H]4O)cc3C(=O)O)=C2C=C1` (some centres undefined) had a pKd of 6.55.

In turn, `NCC1O[C@H](O[C@H]2[C@@H](O)[C@H](O[C@H]3[C@H](O)[C@@H](N)C[C@@H](N)[C@@H]3O[C@H]3O[C@H](CN)[C@@H](O)[C@H](O)[C@H]3N)O[C@@H]2CSCCOCCSSCCOCCSC[C@H]2O[C@H](O[C@@H]3[C@@H](O)[C@H](O[C@H]4O[C@H](CN)[C@@H](O)C[C@H]4N)[C@@H](N)C[C@H]3N)[C@H](O)[C@@H](N)[C@@H]2O)[C@H](N)[C@@H](O)[C@@H]1O` (some centres undefined) gave a pKd of 6.54.

Consider `NC[C@@H]1O[C@H](O[C@H]2[C@@H](O)[C@H](O[C@H]3[C@H](O)[C@@H](N)C[C@@H](N)[C@@H]3O[C@H]3O[C@H](CN)[C@@H](O)[C@H](O)[C@H]3N)O[C@@H]2CSCCOCCSCC(O)CN2C(=O)c3ccc4c5c(ccc(c35)C2=O)C(=O)N(CC(O)CSCCOCCSC[C@H]2O[C@H](O[C@@H]3[C@@H](O)[C@H](O[C@H]5O[C@H](CN)[C@@H](O)C[C@H]5N)[C@@H](N)C[C@H]3N)[C@H](O)[C@@H](N)[C@@H]2O)C4=O)[C@H](N)[C@@H](O)[C@@H]1O` (some centres undefined), for which the pKd was 6.82.

Compound `NC[C@@H]1O[C@H](O[C@@H]2[C@H](O[C@@H]3OC(CSCCOCCSCC(O)CN4C(=O)c5ccc6c7c(ccc(c57)C4=O)C(=O)N(CC(O)CSCCOCCSC[C@H]4O[C@@H](O[C@H]5[C@H](O)[C@@H](N)C[C@@H](N)[C@@H]5O[C@H]5O[C@H](CN)[C@@H](O)[C@H](O)[C@H]5N)[C@H](O)[C@@H]4O[C@H]4O[C@@H](CN)[C@@H](O)[C@H](O)[C@H]4N)C6=O)[C@@H](O[C@@H]4O[C@H](CN)[C@H](O)C(O)[C@H]4N)[C@H]3O)[C@@H](O)[C@@H](N)C[C@@H]2N)[C@@H](N)[C@@H](O)[C@@H]1O` (some centres undefined) showed a pKd of 8.00.

The compound `NCC1O[C@H](O[C@H]2[C@@H](O)[C@H](O[C@H]3[C@H](O)[C@@H](N)C[C@@H](N)[C@@H]3O[C@H]3O[C@H](CN)[C@@H](O)[C@H](O)[C@H]3N)O[C@@H]2CSCCOCCSSCCOCCSC[C@H]2O[C@@H](O[C@H]3[C@H](O)[C@@H](N)C[C@@H](N)[C@@H]3O[C@H]3O[C@H](CN)[C@@H](O)[C@H](O)[C@H]3N)[C@H](O)[C@@H]2O[C@@H]2OC(CN)[C@H](O)[C@@H](O)[C@@H]2N)[C@H](N)[C@@H](O)[C@@H]1O` (some centres undefined) had a pKd of 7.70.

For the compound `NC[C@@H]1O[C@H](O[C@H]2[C@@H](O)[C@H](O[C@@H]3[C@@H](O)[C@H](N)C[C@H](N)[C@H]3O[C@H]3O[C@H](CN)[C@@H](O)[C@H](O)[C@H]3N)O[C@@H]2CO)[C@H](N)[C@@H](O)[C@@H]1O` [FRAMYCETIN], the pKd is 6.46.

`NC[C@H]1O[C@H](O[C@H]2[C@H](O)[C@@H](O[C@H]3O[C@H](CO)[C@@H](O)[C@H](N)[C@H]3O)[C@H](N)C[C@@H]2N)[C@H](N)C[C@@H]1O` [TOBRAMYCIN] gave a pKd of 5.77.

In turn, `NC[C@H]1O[C@H](O[C@H]2[C@H](O)[C@@H](O[C@H]3O[C@H](CSCCOCCSSCCOCCSC[C@H]4O[C@H](O[C@@H]5[C@@H](O)[C@H](O[C@H]6O[C@H](CN)[C@@H](O)C[C@H]6N)[C@@H](N)C[C@H]5N)[C@H](O)[C@@H](N)[C@@H]4O)[C@@H](O)[C@H](N)[C@H]3O)[C@H](N)C[C@@H]2N)[C@H](N)C[C@@H]1O` [Tobramycin-Tobramycin] gave a pKd of 5.74.
